The values below come from PubChem BioAssay AID200 (DTP/NCI, 2004).

Where “and” joins values, the source holds several entries; their conditions need not be identical. Identical values can stand only once. Toxic doses and inconclusive results are not listed.

The experiment has as its system B6C3F1 mice, B16 melanoma ip, median survival T/C. Put plainly: NCI In Vivo Anticancer Drug Screen. Data for tumor model B16 Melanoma (intraperitoneal) in B6C3F1 mice. Conditions: endpoint: median survival time, higher = longer survival. As for the experimental part: The antitumor activity of compounds was measured in mice bearing transplantable tumors. Survival or tumor size were measured and the results are expressed as the measurement made in the treated group (T) divided by the measurement made in the vehicle treated control group (C). The tumor model used in this assay is B16 Melanoma (intraperitoneal) in B6C3F1 mice

The mark [1] stands for this setting: dose: 25.0 mg/kg/injection, schedule: Q01DX009 (ip), vehicle: water.
The mark [2] stands for this setting: dose: 100.0 mg/kg/injection, schedule: Q01DX009 (ip), vehicle: water.
Where [3] appears, read: dose: 12.5 mg/kg/injection, schedule: Q01DX009 (ip), vehicle: saline.
The mark [4] stands for this setting: dose: 25.0 mg/kg/injection, schedule: Q01DX009 (ip), vehicle: saline.
The mark [5] stands for this setting: dose: 50.0 mg/kg/injection, schedule: Q01DX009 (ip), vehicle: saline.
Where [6] appears, read: dose: 100.0 mg/kg/injection, schedule: Q01DX009 (ip), vehicle: saline.
Where [7] appears, read: dose: 200.0 mg/kg/injection, schedule: Q01DX009 (ip), vehicle: saline.
Setting [8] is: dose: 400.0 mg/kg/injection, schedule: Q01DX009 (ip), vehicle: saline.
[9] abbreviates: dose: 6.25 mg/kg/injection, schedule: Q01DX009 (ip), vehicle: saline with Tween-80.
The mark [10] stands for this setting: dose: 12.5 mg/kg/injection, schedule: Q01DX009 (ip), vehicle: saline with Tween-80.
Setting [11] is: dose: 25.0 mg/kg/injection, schedule: Q01DX009 (ip), vehicle: saline with Tween-80.
Setting [12] is: dose: 50.0 mg/kg/injection, schedule: Q01DX009 (ip), vehicle: saline with Tween-80.
The mark [13] stands for this setting: dose: 100.0 mg/kg/injection, schedule: Q01DX009 (ip), vehicle: saline with Tween-80.
Where [14] appears, read: dose: 100.0 mg/kg/injection, schedule: Q01DX009 (ip), vehicle: Klucel (hydroxypropylcellulose) (HPC).
Setting [15] is: dose: 200.0 mg/kg/injection, schedule: Q01DX009 (ip), vehicle: Klucel (hydroxypropylcellulose) (HPC).

With `Cc1ccc([NH-])c([NH-])c1.[Cl][Pt+2][Cl]`, the T/C reads like this: (dose: 0.63 mg/kg/injection, schedule: Q01DX009 (ip), vehicle: saline with Tween-80) 114 % of control; (dose: 5.0 mg/kg/injection, schedule: Q01DX009 (ip), vehicle: saline with Tween-80) 157 % of control; (dose: 10.0 mg/kg/injection, schedule: Q01DX009 (ip), vehicle: saline with Tween-80) 160 % of control.
`CCCCCCCOc1ccc(C(=O)O)cc1`: the T/C reads like this: (dose: 12.5 mg/kg/injection, schedule: Q01DX009 (ip), vehicle: Klucel (hydroxypropylcellulose) (HPC)) 106 % of control; (dose: 25.0 mg/kg/injection, schedule: Q01DX009 (ip), vehicle: Klucel (hydroxypropylcellulose) (HPC)) 108 % of control; (dose: 50.0 mg/kg/injection, schedule: Q01DX009 (ip), vehicle: Klucel (hydroxypropylcellulose) (HPC)) 114 % of control.
`CCSCCNC(=O)[C@@]1(O)[C@H](O)[C@]2(CC)C=CCN3CC[C@@]4(c5cc([C@@]6(OC(C)=O)C[C@H]7C=C(CC)CN(CCc8c6[nH]c6ccccc86)C7)c(OC)cc5N(C)[C@@H]14)[C@@H]32`: the T/C (dose: 0.5 mg/kg/injection, schedule: Q01DX009 (ip), vehicle: water) is 164 % of control.
In the case of `COc1ccc2c(c1)-c1nn(CCCN(C)C)c3ccc([N+](=O)[O-])c(c13)N2`, the T/C by setting is: (dose: 1.56 mg/kg/injection, schedule: Q01DX009 (ip), vehicle: water) 110 % of control; (dose: 3.12 mg/kg/injection, schedule: Q01DX009 (ip), vehicle: water) 116 % of control and 122 % of control.
As to `O=C(NO)c1cc(O)c(O)c(O)c1`, the T/C was 100 % of control under setting [1]; 105 % of control (dose: 50.0 mg/kg/injection, schedule: Q01DX009 (ip), vehicle: water); 114 % of control under setting [2]; 118 % of control (dose: 200.0 mg/kg/injection, schedule: Q01DX009 (ip), vehicle: water).
Consider `O=NNc1ncc(Br)cc1Br`, for which the T/C (dose: 6.25 mg/kg/injection, schedule: Q01DX009 (ip), vehicle: water) was 108 % of control; the T/C (dose: 12.5 mg/kg/injection, schedule: Q01DX009 (ip), vehicle: water) is 114 % of control; the T/C under setting [1] was 110 % of control; the T/C under setting [2] was 98 % of control.
Regarding `O=[N+]([O-])c1nccn1CC(O)CO` (centres undefined), the T/C is, setting by setting: under setting [3], 91 % of control and 101 % of control; under setting [4], 102 % of control and 107 % of control; under setting [5], 95 % of control and 97 % of control; under setting [6], 111 % of control and 93 % of control; under setting [7], 95 % of control and 98 % of control; under setting [8], 91 % of control and 107 % of control.
As for `COc1cccc2c1C(=O)c1c(O)c3c(c(O)c1C2=O)CC(O)(C(=O)CO)CC3OC1CC(N)C(O)C(C)O1` (centres undefined), the T/C was 108 % of control (dose: 4.1 mg/kg/injection, schedule: Q01DX001 (ip), vehicle: other); 209 % of control (dose: 4.5 mg/kg/injection, schedule: Q01DX009 (ip), vehicle: water); 114 % of control (dose: 6.9 mg/kg/injection, schedule: Q01DX001 (ip), vehicle: other); 219 % of control (dose: 9.0 mg/kg/injection, schedule: Q01DX009 (ip), vehicle: water); 118 % of control (dose: 11.5 mg/kg/injection, schedule: Q01DX001 (ip), vehicle: other); 234 % of control (dose: 18.0 mg/kg/injection, schedule: Q01DX009 (ip), vehicle: water). The T/C is 123 % of control (dose: 19.2 mg/kg/injection, schedule: Q01DX001 (ip), vehicle: other) and 156 % of control (dose: 36.0 mg/kg/injection, schedule: Q01DX009 (ip), vehicle: water).
In the case of `COC(=O)C(F)C(Br)C(=O)OC` (centres undefined), the T/C (dose: 3.13 mg/kg/injection, schedule: Q01DX009 (ip), vehicle: saline with Tween-80) is 98 % of control; the T/C under setting [9] is 91 % of control; the T/C under setting [10] was 93 % of control; the T/C under setting [11] was 93 % of control; the T/C under setting [12] was 90 % of control.
Take `COc1cc(C(C)(C)C)cc(OC)c1C(O)(c1c(OC)cc(C(C)(C)C)cc1OC)c1c(OC)cc(C(C)(C)C)cc1OC`: the T/C was 107 % of control under setting [9]; 114 % of control and 106 % of control under setting [10]; 112 % of control and 106 % of control under setting [11]; 117 % of control under setting [12]; 109 % of control under setting [13].
As to `CN(C)CCNc1ccc([N+](=O)[O-])c2sc3ccccc3c(=O)c12`, the T/C under setting [9] was 113 % of control; the T/C (dose: 6.25 mg/kg/injection, schedule: Q01DX009 (ip), vehicle: saline) was 105 % of control; the T/C under setting [10] was 117 % of control and 102 % of control; the T/C under setting [3] is 101 % of control; the T/C under setting [11] was 118 % of control; the T/C under setting [4] is 103 % of control. Under setting [5], the T/C was 106 % of control.
With `CCC(C)C(NC(=O)OCC1c2ccccc2-c2ccccc21)C(=O)O` (centres undefined), the T/C under setting [14] was 101 % of control and 102 % of control; the T/C under setting [15] was 98 % of control and 100 % of control.
Consider `CN1CCC(c2ccccc2)(c2ccccc2)C(=O)C1`, for which the T/C reads like this: under setting [11], 97 % of control; under setting [12], 90 % of control; under setting [13], 93 % of control and 95 % of control.
As for `CSCCC(N)C(=O)O` (centres undefined), the T/C is 106 % of control under setting [4]; 94 % of control under setting [5]; 100 % of control under setting [6]; 113 % of control under setting [7]; 99 % of control under setting [8].
Turning to `CC(NC(=O)C(Cc1cnc[nH]1)NC(=O)OCc1ccccc1)C(=O)O` (centres undefined), the T/C runs as follows: under setting [14], 98 % of control; under setting [15], 104 % of control; (dose: 400.0 mg/kg/injection, schedule: Q01DX009 (ip), vehicle: Klucel (hydroxypropylcellulose) (HPC)) 98 % of control.
For the molecule `NS(=O)(=O)c1cc2c(cc1Cl)NC=NS2(=O)=O`, the T/C runs as follows: (dose: 37.5 mg/kg/injection, schedule: Q01DX009 (ip), vehicle: Klucel (hydroxypropylcellulose) (HPC)) 94 % of control; (dose: 75.0 mg/kg/injection, schedule: Q01DX009 (ip), vehicle: Klucel (hydroxypropylcellulose) (HPC)) 90 % of control; (dose: 150.0 mg/kg/injection, schedule: Q01DX009 (ip), vehicle: Klucel (hydroxypropylcellulose) (HPC)) 95 % of control; (dose: 300.0 mg/kg/injection, schedule: Q01DX009 (ip), vehicle: Klucel (hydroxypropylcellulose) (HPC)) 88 % of control.
Consider `C=C(OC1C(C)=C2C(C1OC(=O)CCCCCCC)C(C)(OC(C)=O)CC(OC(=O)CCC)C1(O)C2OC(=O)C1(C)O)/C(C)=C/C` (centres undefined), for which the T/C is, setting by setting: (dose: 0.09 mg/kg/injection, schedule: Q01DX009 (ip), vehicle: Klucel (hydroxypropylcellulose) (HPC)) 99 % of control; (dose: 0.18 mg/kg/injection, schedule: Q01DX009 (ip), vehicle: Klucel (hydroxypropylcellulose) (HPC)) 114 % of control; (dose: 0.37 mg/kg/injection, schedule: Q01DX009 (ip), vehicle: Klucel (hydroxypropylcellulose) (HPC)) 102 % of control; (dose: 0.75 mg/kg/injection, schedule: Q01DX009 (ip), vehicle: Klucel (hydroxypropylcellulose) (HPC)) 114 % of control.
